# Source: patent publication US20120202814A1, “COMPOUNDS WITH DDX3 INHIBITORY ACTIVITY AND USES THEREOF” (UNIVERSITÀ DEGLI STUDI DI SIENA, priority 2009, published 2012)
# Experiments:
# [1] = target: T1, human DDX3 (ATPase activity) (Homo sapiens, UniProt O00571); assay: Human DDX3 ATPase activity assay (luciferase-based luminescence); format: biochemical; settings: DDX3 ATPase activity; read-out: Ki (μM), apparent equilibrium dissociation constant for the inhibitor to the target enzyme DDX3
# T1 construct: made in house; host or cells: E. coli
# Description: ATPase activity was tested with a luciferase-based luminescence assay (Easylite-Kinase, Perkin Elmer) on 96 wells microtiter plates. Briefly, recombinant purified human DDX3 (50-100 ng) was incubated in a 15 μL total reaction volume with reaction buffer (25 mM TrisHCl pH 7.5, 5 mM MgCl2), in the presence of increasing amounts of ATP and/or different combinations of ATP and the inhibitor to be tested. Reference curves in the absence of inhibitor (giving the 100% of enzymatic activity) and in the absence of enzyme (giving the baseline), were also included in each experiment. Reading was performed with a Microbeta Trilux (Perkin Elmer) luminometer, according to the manufacturer's protocol.
# ATPase reactions were performed as described, in the presence of increasing amounts of inhibitor and variable ATP concentrations. Variations of the initial velocities of the reaction as a function of ATP concentrations in the absence or presence of 4 were analyzed with the equation: […]
# Variation of the % inhibition as a function of compound FE15 at different ATP concentrations were fitted to the equation for cooperative binding: […]
# where Vmax is the apparent maximal rate of the reaction in the absence of the inhibitor, [I] is the variable inhibitor concentration, n is the cooperativity index and Ki(app) is the apparent inhibition constant. Comparatively, fitting was done with the same Eq. (2) where n was kept fixed at the value of 1 (non-cooperativity hypothesis). F test was used to compare the two fittings and p value was calculated.
# Human recombinant DDX3 was cloned, expressed and purified as described (Franca et al. Proteins 2007, 67, 1128-37).
# The anti-DDX3 activity of the compounds of the invention was evaluated by in vitro ATPase activity assay using the recombinant human DDX3 protein produced in E. coli. The potency of inhibition (Ki) for each molecule was calculated, representing the concentration of the inhibitor able to reduce the DDX3 ATPase activity by 50%
# T1 sequence (O00571 whole entry): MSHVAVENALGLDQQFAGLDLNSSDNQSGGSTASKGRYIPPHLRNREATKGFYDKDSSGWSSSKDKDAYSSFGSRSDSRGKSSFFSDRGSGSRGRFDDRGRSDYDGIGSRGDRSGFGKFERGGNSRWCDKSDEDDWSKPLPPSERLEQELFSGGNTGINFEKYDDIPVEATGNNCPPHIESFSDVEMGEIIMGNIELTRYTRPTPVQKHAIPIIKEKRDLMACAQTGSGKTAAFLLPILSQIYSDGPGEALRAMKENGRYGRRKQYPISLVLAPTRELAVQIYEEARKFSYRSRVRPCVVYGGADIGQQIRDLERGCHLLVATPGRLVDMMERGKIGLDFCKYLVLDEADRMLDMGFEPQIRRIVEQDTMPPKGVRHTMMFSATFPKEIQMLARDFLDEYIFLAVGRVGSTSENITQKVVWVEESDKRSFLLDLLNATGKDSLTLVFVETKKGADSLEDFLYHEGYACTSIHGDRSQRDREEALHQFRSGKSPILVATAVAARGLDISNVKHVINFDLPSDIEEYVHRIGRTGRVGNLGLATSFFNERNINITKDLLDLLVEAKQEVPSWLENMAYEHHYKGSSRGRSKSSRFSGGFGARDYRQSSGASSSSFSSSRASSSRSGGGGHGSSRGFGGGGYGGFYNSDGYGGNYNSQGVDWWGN
SMILES,melting point [°C],Ki [1] [µM]
"O=C1/C(=C/c2cccc(Br)c2)SC(=S)N1CCc1ccccc1 [Compound 3a, (Z)-5-(3-bromobenzylidene)-3-phenethyl-2-thioxothiazolidin-4-one]",102 to 104,–
"O=C1/C(=C/c2cccc(Br)c2)SC(=S)N1Cc1ccccc1 [Compound 3b, (Z)-5-(3-bromobenzylidene)-3-benzyl-2-thioxothiazolidin-4-one]",112 to 113,–
"C#CN1C(=O)/C(=C/c2cccc(Br)c2)SC1=S [Compound 3c, (Z)-5-(3-bromobenzylidene)-3-ethynyl-2-thioxothiazolidin-4-one]",159 to 161,–
"COC(CN1C(=O)/C(=C/c2cccc(Br)c2)SC1=S)OC [Compound 3d, (Z)-5-(3-bromobenzylidene)-3-(2,2-dimethoxyethyl)-2-thioxothiazolidin-4-one]",124 to 126,–
"CCCCN1C(=O)/C(=C/c2cccc(Br)c2)SC1=S [Compound 3e, (Z)-5-(3-bromobenzylidene)-3-butyl-2-thioxothiazolidin-4-one]",113 to 115,–
"COc1cccc(/C=C2\SC(=S)N(CCc3ccccc3)C2=O)c1 [Compound 3f, (Z)-5-(3-methoxybenzylidene)-3-phenethyl-2-thioxothiazolidin-4-one]",122 to 125,–
"O=C1/C(=C/c2ccco2)SC(=S)N1CCc1ccccc1 [Compound 3g, (Z)-5-((furan-2-yl)methylene)-3-phenethyl-2-thioxothiazolidin-4-one]",150 to 152,–
"O=C1/C(=C/c2cccnc2)SC(=S)N1CCc1ccccc1 [Compound 3h, (Z)-3-phenethyl-5-((pyridin-3-yl)methylene)-2-thioxothiazolidin-4-one]",138 to 140,–
"O=C1/C(=C/c2ccc3ccccc3c2)SC(=S)N1CCc1ccccc1 [Compound 3i, (Z)-5-((naphthalen-3-yl)methylene)-3-phenethyl-2-thioxothiazolidin-4-one]",174 to 176,–
"O=C(NCCN1C(=O)/C(=C/c2cccc(Br)c2)SC1=S)c1ccccc1O [Compound 3j, N-(2-((Z)-5-(3-Bromobenzylidene)-4-oxo-2-thioxothiazolidin-3-yl)ethyl)-2-hydroxybenzamide]",–,4.2
"O=C(NCCN1C(=O)/C(=C/c2cccc(F)c2)SC1=S)c1ccccc1O [Compound 3k, N-(2-((Z)-5-(3-Fluorobenzylidene)-4-oxo-2-thioxothiazolidin-3-yl)ethyl)-2-hydroxy-benzamide]",–,4.3
"O=C(CCN1C(=O)C/C(=C\c2cccc(Br)c2)C1=O)Nc1ccccc1O [Compound 6b, 3-((E)-3-(3-bromobenzylidene)-2,5-dioxopyrrolidin-1-yl)-N-(2-hydroxyphenyl)propanamide]",–,28
"Fc1ccc(Nc2nc(N/N=C/c3cccc4ccccc34)nc(N3CCOCC3)n2)cc1 [Compound 11a, (E)-N-(4-fluorophenyl)-4-morpholino-6-(2-(naphthalen-1-ylmethylene)hydrazinyl)-1,3,5-triazin-2-amine]",220 to 220.4,86
"Fc1ccc(Nc2nc(N/N=C/c3ccc4ccccc4c3)nc(N3CCOCC3)n2)cc1 [Compound 11b, (E)-N-(4-fluorophenyl)-4-morpholino-6-(2-(naphthalen-2-ylmethylene)hydrazinyl)-1,3,5-triazin-2-amine]",225 to 226,8.5
"Fc1ccc(Nc2nc(N/N=C/c3c(F)cccc3F)nc(N3CCOCC3)n2)cc1 [Compound 11c, (E)-4-(2-(2,6-difluorobenzylidene)hydrazinyl)-N-(4-fluorophenyl)-6-morpholino-1,3,5-triazin-2-amine]",155.5 to 156,2.6
"O=C1Nc2ccccc2/C1=N/Nc1nc(NCc2cccc(Cl)c2)nc(N2CCOCC2)n1 [Compound 14f, (Z)-3-(2-(4-(3-Chlorobenzylamino)-6-morpholino-1,3,5-triazin-2-yl)hydrazono)indolin-2-one]",144 to 144.5,2.9
"Oc1ccccc1/C=N/Nc1nc(NCc2cccc(Cl)c2)nc(N2CCOCC2)n1 [Compound 15j, (E)-2-((2-(4-(3-chlorobenzylamino)-6-morpholino-1,3,5-triazin-2-yl)hydrazono)methyl)phenol]",163.5 to 164,62
"OCCc1cc(Nc2ccc(F)cc2)nc(N/N=C/c2ccccc2O)n1 [Compound 22, 2-((2-(4-(4-Fluorophenylamino)-6-(2-hydroxyethyl)pyrimidin-2-yl)hydrazono)methyl)phenol]",–,9

SMILES,melting point [°C],Ki [1] [µM]
"O=C(CCN1C(=O)/C(=C/c2cc(F)cc(F)c2)SC1=S)Nc1ccccc1O [Compound 35c, 3-((Z)-5-(3,5-Difluorobenzylidene)-4-oxo-2-thioxothiazolidin-3-yl)-N-(2-hydroxyphenyl) propanamide]",235 to 237,0.5
"Cc1cccc(/C=C2\SC(=S)N(CCC(=O)Nc3ccccc3O)C2=O)c1 [Compound 35d, 3-((Z)-5-(3-Methylbenzylidene)-4-oxo-2-thioxothiazolidin-3-yl)-N-(2-hydroxyphenyl) propanamide]",208 to 209,97
"COc1cccc(/C=C2\SC(=S)N(CCC(=O)Nc3ccccc3O)C2=O)c1 [Compound 35e, 3-((Z)-5-(3-Methoxybenzylidene)-4-oxo-2-thioxothiazolidin-3-yl)-N-(2-hydroxyphenyl) propanamide]",200 to 202,10
Clc1ccccc1-c1ccc(/C=N/Nc2nc(Nc3ccccc3)nc(N3CCOCC3)n2)o1 [FE-56AA],–,3.2
O=C1Nc2ccccc2/C1=N\Nc1nc(Nc2cccc(Cl)c2)nc(N2CCOCC2)n1 [FE-56AD],–,2
Cc1ccc(Nc2nc(N/N=C3/C(=O)Nc4ccccc43)nc(N3CCOCC3)n2)cc1Cl [FE-56AH],–,3.2
CC(=O)Nc1ccc(/C(C)=N/Nc2nc(Nc3ccccc3)nc(N3CCOCC3)n2)cc1 [FE-56AI],–,2.2
Cc1ccc(Nc2nc(N/N=C/c3ccccc3O)nc(N3CCOCC3)n2)cc1Cl [FE-56AM],–,1.6
CC(=O)Nc1ccc(/C(C)=N/Nc2nc(NCc3ccccc3)nc(N3CCOCC3)n2)cc1 [FE-56AN],–,0.5
Oc1ccc(/C=N/Nc2nc(Nc3ccccc3)nc(Nc3ccccc3)n2)c(O)c1 [FE-56I],–,33
Clc1ccc(/C=N/Nc2nc(Nc3ccccc3)nc(Nc3ccccc3)n2)cc1Cl [FE-56O],–,18
O=C(Oc1cccc(/C=N/Nc2nc(Nc3ccccc3)nc(N3CCOCC3)n2)c1)c1ccco1 [FE-56U],–,6.3
O=[N+]([O-])c1ccc(Cl)c(-c2ccc(/C=N/Nc3nc(Nc4ccc(F)cc4)nc(N4CCOCC4)n3)o2)c1 [FE-56V],–,3.6
COc1ccc(Nc2nc(NCc3ccco3)nc(N/N=C/c3ccc(-c4ccccc4[N+](=O)[O-])o3)n2)cc1 [FE-56Z],–,1.9
COc1cc(/C=C2\SC(=S)N(CCC(=O)N3CCCc4ccccc43)C2=O)cc(OC)c1OC [FE-69],–,0.9
O=C(CCN1C(=O)/C(=C/c2ccc3c(c2)OCO3)SC1=S)Nc1ccccc1C(=O)O [FE-70],–,0.4
COc1cc(/C=C2\SC(=S)N(CCC(=O)Nc3ccccc3O)C2=O)cc(OC)c1OC [FE-74],–,0.1
COc1ccc(/C=C2\SC(=S)N(CCC(=O)Nc3ccccc3C(=O)O)C2=O)cc1 [FE-77],–,2
